Tested on: P12-Ichikawa
Assay: cell viability relative to DMSO control; higher = less cytotoxic
Conditions: 48 h
Method in brief: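 Viability, reported as a per-plate percentage of DMSO wells with cell-free wells as background, came from CellTiter-Glo One luminescence. Reading took place after 48 h at 37°C. Before that, NOMO1 or SEM (500 cells/well) or P12-Ichikawa (1000 cells/well) leukemia cells, adapted for at least four passages in each medium, were seeded in 1536-well plates (5 μl) and pin-dosed with library compounds in DMSO, 47 μM to 0.79 nM over 11 threefold points.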

[1] = HPLM + 10% dialyzed FBS, 0.000781 µM
[2] = HPLM + 10% dialyzed FBS, 0.00234 µM
[3] = HPLM + 10% dialyzed FBS, 0.00702 µM
[4] = HPLM + 10% dialyzed FBS, 0.0211 µM
[5] = HPLM + 10% dialyzed FBS, 0.0632 µM
[6] = HPLM + 10% dialyzed FBS, 0.19 µM
[7] = HPLM + 10% dialyzed FBS, 0.569 µM
[8] = HPLM + 10% dialyzed FBS, 1.71 µM
[9] = HPLM + 10% dialyzed FBS, 5.12 µM
[10] = HPLM + 10% dialyzed FBS, 15.4 µM
[11] = HPLM + 10% dialyzed FBS, 46.1 µM
[12] = RPMI 5 mM glucose + 10% FBS, 0.000781 µM
[13] = RPMI 5 mM glucose + 10% FBS, 0.00234 µM
[14] = RPMI 5 mM glucose + 10% FBS, 0.00702 µM
[15] = RPMI 5 mM glucose + 10% FBS, 0.0211 µM
[16] = RPMI 5 mM glucose + 10% FBS, 0.0632 µM
[17] = RPMI 5 mM glucose + 10% FBS, 0.19 µM
[18] = RPMI 5 mM glucose + 10% FBS, 0.569 µM
[19] = RPMI 5 mM glucose + 10% FBS, 1.71 µM
[20] = RPMI 5 mM glucose + 10% FBS, 5.12 µM
[21] = RPMI 5 mM glucose + 10% FBS, 15.4 µM
[22] = RPMI 5 mM glucose + 10% FBS, 46.1 µM
[23] = RPMI 5 mM glucose + 10% dialyzed FBS, 0.000781 µM
[24] = RPMI 5 mM glucose + 10% dialyzed FBS, 0.00234 µM
[25] = RPMI 5 mM glucose + 10% dialyzed FBS, 0.00702 µM
[26] = RPMI 5 mM glucose + 10% dialyzed FBS, 0.0211 µM
[27] = RPMI 5 mM glucose + 10% dialyzed FBS, 0.0632 µM
[28] = RPMI 5 mM glucose + 10% dialyzed FBS, 0.19 µM
[29] = RPMI 5 mM glucose + 10% dialyzed FBS, 0.569 µM
[30] = RPMI 5 mM glucose + 10% dialyzed FBS, 1.71 µM
[31] = RPMI 5 mM glucose + 10% dialyzed FBS, 5.12 µM
[32] = RPMI 5 mM glucose + 10% dialyzed FBS, 15.4 µM
[33] = RPMI 5 mM glucose + 10% dialyzed FBS, 46.1 µM

Compound: COC1=CC=CC=C1C2=CC=CC(=C2)C/3=C(O)/C4=CC(=C(Cl)C=C4NC3=O)C#N
- cell viability [1]: 98.4%
- cell viability [2]: 106%
- cell viability [3]: 111%
- cell viability [4]: 114%
- cell viability [5]: 107%
- cell viability [6]: 112%
- cell viability [7]: 109%
- cell viability [8]: 92.8%
- cell viability [9]: 10.2%
- cell viability [10]: 6.7%
- cell viability [11]: 10.6%
- cell viability [12]: 99.3%
- cell viability [13]: 110%
- cell viability [14]: 107%
- cell viability [15]: 116%
- cell viability [16]: 123%
- cell viability [17]: 115%
- cell viability [18]: 114%
- cell viability [19]: 106%
- cell viability [20]: 64.3%
- cell viability [21]: 4.25%
- cell viability [22]: 5.71%
- cell viability [23]: 95.2%
- cell viability [24]: 99.1%
- cell viability [25]: 105%
- cell viability [26]: 105%
- cell viability [27]: 99.6%
- cell viability [28]: 101%
- cell viability [29]: 110%
- cell viability [30]: 94%
- cell viability [31]: 45.5%
- cell viability [32]: 5.98%
- cell viability [33]: 6.01%

Compound: CN[S+](=O)([O-])Cc1ccc2[nH]cc(CCN(C)C)c2c1
- cell viability [1]: 110%
- cell viability [2]: 122%
- cell viability [3]: 112%
- cell viability [4]: 118%
- cell viability [5]: 123%
- cell viability [6]: 126%
- cell viability [7]: 123%
- cell viability [8]: 123%
- cell viability [9]: 116%
- cell viability [10]: 120%
- cell viability [11]: 126%
- cell viability [12]: 115%
- cell viability [13]: 123%
- cell viability [14]: 125%
- cell viability [15]: 116%
- cell viability [16]: 128%
- cell viability [17]: 119%
- cell viability [18]: 131%
- cell viability [19]: 136%
- cell viability [20]: 125%
- cell viability [21]: 130%
- cell viability [22]: 131%
- cell viability [23]: 106%
- cell viability [24]: 113%
- cell viability [25]: 113%
- cell viability [26]: 122%
- cell viability [27]: 119%
- cell viability [28]: 121%
- cell viability [29]: 128%
- cell viability [30]: 131%
- cell viability [31]: 121%
- cell viability [32]: 127%
- cell viability [33]: 121%

Compound: CN(C)c1ccc(O)c2c1C[C@H]1C[C@H]3[C@H](N(C)C)C(O)=C(C(N)=O)C(=O)[C@@]3(O)C(O)=C1C2=O
- cell viability [1]: 109%
- cell viability [2]: 106%
- cell viability [3]: 105%
- cell viability [4]: 97.4%
- cell viability [5]: 107%
- cell viability [6]: 110%
- cell viability [7]: 103%
- cell viability [8]: 99.9%
- cell viability [9]: 104%
- cell viability [10]: 91.2%
- cell viability [11]: 106%
- cell viability [12]: 113%
- cell viability [13]: 110%
- cell viability [14]: 101%
- cell viability [15]: 100%
- cell viability [16]: 112%
- cell viability [17]: 103%
- cell viability [18]: 101%
- cell viability [19]: 95.2%
- cell viability [20]: 88.5%
- cell viability [21]: 94.9%
- cell viability [22]: 93.9%
- cell viability [23]: 110%
- cell viability [24]: 116%
- cell viability [25]: 112%
- cell viability [26]: 118%
- cell viability [27]: 118%
- cell viability [28]: 95.6%
- cell viability [29]: 86.2%
- cell viability [30]: 81.7%
- cell viability [31]: 82.5%
- cell viability [32]: 92.6%
- cell viability [33]: 98.8%

Compound: COc1ccc(C[C@@H](C)[C@@H](C)Cc2ccc(OC)c(OC)c2)cc1OC
- cell viability [1]: 92.6%
- cell viability [2]: 105%
- cell viability [3]: 102%
- cell viability [4]: 110%
- cell viability [5]: 99.4%
- cell viability [6]: 102%
- cell viability [7]: 97.7%
- cell viability [8]: 83%
- cell viability [9]: 6.15%
- cell viability [10]: 5.92%
- cell viability [11]: 2.61%
- cell viability [12]: 97%
- cell viability [13]: 103%
- cell viability [14]: 98.3%
- cell viability [15]: 110%
- cell viability [16]: 111%
- cell viability [17]: 99.7%
- cell viability [18]: 92.4%
- cell viability [19]: 81%
- cell viability [20]: 4.82%
- cell viability [21]: 4.04%
- cell viability [22]: 2.42%
- cell viability [23]: 95.4%
- cell viability [24]: 102%
- cell viability [25]: 105%
- cell viability [26]: 107%
- cell viability [27]: 104%
- cell viability [28]: 90.6%
- cell viability [29]: 93.4%
- cell viability [30]: 81.9%
- cell viability [31]: 6.68%
- cell viability [32]: 4.98%
- cell viability [33]: 2.21%

Source: the supplement of paper PMC11451515
